Results: article PMC6733874, “Zebrafish behavioural profiling identifies GABA and serotonin receptor ligands related to sedation and paradoxical excitation” (Nature Communications, 2019)
Entries after “also recorded” stand apart in the source; their conditions may differ. Like-named read-outs stand apart in the source and are kept apart here.

Columns and labels:
zebrafish [1] = assay type: in vivo; settings: for rescue of behavioral phenotypes by pretreatment with the GABAAR antagonist PTX: violet light and eASR phenotypes, in words
[2] = test system: human GABAARs (α1β2 and α1β2γ2); assay type: cell-based; settings: for FLIPR Results: Positive/Negative; for GABAAR PAM activity in FLIPR, in words: in the presence of GABA
Text: To determine if these compounds targeted human GABAARs, we tested them in a fluorescent imaging plate reader (FLIPR) assay on HEK293 cells transfected with α1β2 and α1β2γ2 human GABAAR subtypes. […]. […] While some of the compounds appeared to function in this assay as negative allosteric modulators (NAMs), reductions in fluorescence were likely due to toxicity-induced cell loss (Fig. 2f, Supplementary Table 5).
We used the FLIPR system (Molecular Devices) to quantify GABA-evoked activity of human GABAARs. We chose a membrane potential dye (Molecular Devices) to measure changes in membrane potentials and stably transfected HEK293 cells that expressed α1, β2 and γ2. Since we observed an increase in GABA-evoked responses when transfected with γ2 transiently, we describe the cells as having a low level of γ-subunit expression, indicating heterogeneity of GABAAR compositions in the cell (α1β2 or α1β2γ2). To assay for direct agonists, fluorescence was subtracted pre- and post compound addition. To assay for PAMs, cells were treated with compound at 20 uM and then with 5 uM GABA.

zebrafish [3] = assay: Optovin-response suppression assay (pain-related); settings: in words; relative to concentrations that caused eASRs
Text: To determine if any of the hit compounds may be analgesic, we used optovin-induced motor activity as a potential analgesia-related assay.

zebrafish [4] = assay type: in vivo; settings: in words
Procedure: Behavioral assays for pERK. Animals were treated with DMSO or drug for one hour then exposed to a low-volume acoustic stimulus every 10 seconds for 10 minutes. Optovin-treated animals were stimulated with violet light for one second every 10 seconds for 10 minutes. Videos were recorded to measure response to the stimulus and quantified by motion index (MI). […]

[5] = larvae, low-volume acoustic stimulus
[6] = compound at 20 uM then 5 uM GABA, DMSO = 1
[7] = compound at 20 uM then 5 uM GABA

C[C@]12CC[C@H]3[C@@H](CCC4=CC(=O)CC[C@@]43C)[C@@H]1CC[C@@H]2C(=O)CO [DOC, 11-deoxycorticosterone]
enhanced acoustic startle response (eASR) phenotype, in words (zebrafish [1]; [5]): most potent compounds tested | Ave Norm FLIPR Score [2, 6]: -4.308

CCCCn1c2ccccc2n2c(C(=O)OCC)c(C)nc12 [compound 5658603]
rescue of behavioral phenotypes by pretreatment with the GABAAR antagonist PTX (zebrafish [1]): rescued | Ave Norm FLIPR Score [2, 6]: 55.24 | FLIPR Results [2, 7]: Positive | optovin response (optovin-induced motor activity) (zebrafish [3]): did not suppress the optovin response

Nc1ccc(Oc2ccc(Cl)c3cccnc23)c(Cl)c1 [compound 5846886]
Ave Norm FLIPR Score [2, 6]: -5.255

CC(=O)/N=C(/Nc1cccc(C(F)(F)F)c1)Nc1nc(C)cc(C)n1 [compound 5869570]
Ave Norm FLIPR Score [2, 6]: 15.04 | FLIPR Results [2, 7]: Positive

Cc1ccc(Cl)cc1NC(=O)COc1c(C)cccc1C [compound 5942595]
rescue of behavioral phenotypes by pretreatment with the GABAAR antagonist PTX (zebrafish [1]): partially rescued | Ave Norm FLIPR Score [2, 6]: 84.91 | FLIPR Results [2, 7]: Positive | GABAAR PAM activity in FLIPR, in words [2]: potentiated GABAARs significantly greater than positive controls; also recorded: significantly greater than the positive controls | optovin response (optovin-induced motor activity) (zebrafish [3]): blocked optovin-induced motor activity

COc1ccccc1N1CCN(C(=O)c2ccc(C(=O)c3c(C)cc(C)cc3C)cc2)CC1 [compound 6013263]
rescue of behavioral phenotypes by pretreatment with the GABAAR antagonist PTX (zebrafish [1]): partially rescued | Ave Norm FLIPR Score [2, 6]: 1.035

COc1ccc(S(=O)(=O)NC2CCCC2)cc1Br [compound 6028165]
rescue of behavioral phenotypes by pretreatment with the GABAAR antagonist PTX (zebrafish [1]): partially rescued | Ave Norm FLIPR Score [2, 6]: 28.76 | FLIPR Results [2, 7]: Positive | optovin response (optovin-induced motor activity) (zebrafish [3]): only reduced the optovin response at concentrations that also reduced eASRs

CCOc1ccccc1NS(=O)(=O)c1ccc(OC)c(Br)c1 [compound 6030006]
rescue of behavioral phenotypes by pretreatment with the GABAAR antagonist PTX (zebrafish [1]): partially rescued | Ave Norm FLIPR Score [2, 6]: 3.046

O=S(=O)(Nc1ccc(OCc2ccccc2)cc1)c1ccc2c(c1)OCCO2 [compound 6163607]
Ave Norm FLIPR Score [2, 6]: -5.679

CC(C)c1ccc(NS(=O)(=O)c2ccc3c(c2)OCCO3)cc1 [compound 6212662]
Ave Norm FLIPR Score [2, 6]: -5.179 | optovin response (optovin-induced motor activity) (zebrafish [3]): only reduced the optovin response at concentrations that also reduced eASRs

COc1ccc(S(=O)(=O)N2CCC(C)CC2)cc1Br [compound 6366118]
Ave Norm FLIPR Score [2, 6]: 14.5 | FLIPR Results [2, 7]: Positive

COc1cc(OC)cc(C(=O)Nc2ccc(Cl)cc2C(F)(F)F)c1 [compound 6376886]
Ave Norm FLIPR Score [2, 6]: 32.44 | FLIPR Results [2, 7]: Positive

CCCN(CCC)S(=O)(=O)c1ccc(Cl)c(Cl)c1OC [compound 6474599]
Ave Norm FLIPR Score [2, 6]: 52.02 | FLIPR Results [2, 7]: Positive

COc1ccccc1-c1coc2cc(OC(=O)c3cccs3)ccc2c1=O [compound 6645327]
Ave Norm FLIPR Score [2, 6]: -4.734

CC(C)CC(=O)NC(S)=NCc1ccccc1 [compound 6993015]
Ave Norm FLIPR Score [2, 6]: 23.93 | FLIPR Results [2, 7]: Positive

CCc1cc2c(=O)c(-c3ccccc3Cl)coc2cc1O [compound 7014338]
Ave Norm FLIPR Score [2, 6]: -6.27

O=C(Cc1ccc(Cl)cc1)Nc1cccc(C(=O)c2ccccc2)c1 [compound 7100598]
Ave Norm FLIPR Score [2, 6]: 7.736 | FLIPR Results [2, 7]: Positive

Nc1ccc(OC(F)(F)F)cc1C(=O)c1ccccc1 [compound 7113584]
Ave Norm FLIPR Score [2, 6]: -2.455

CCOC(=O)c1c(C)n(Cc2ccco2)c2ccc(OC)cc12 [compound 7114005]
Ave Norm FLIPR Score [2, 6]: 15.23 | FLIPR Results [2, 7]: Positive | optovin response (optovin-induced motor activity) (zebrafish [3]): blocked optovin-induced motor activity

Cc1cc(C)n2c(SCc3ccc(C(=O)c4ccccc4)cc3)nnc2n1 [compound 7166683]
Ave Norm FLIPR Score [2, 6]: -1.302

Cc1cccc(OCCn2c(NC(=O)c3ccco3)nc3ccccc32)c1 [compound 7273455]
Ave Norm FLIPR Score [2, 6]: 7.892 | FLIPR Results [2, 7]: Positive

CCOC(=O)c1c(NC(=O)C2CCCC2)sc2c1CCCC2 [compound 7282929]
Ave Norm FLIPR Score [2, 6]: 17.15 | FLIPR Results [2, 7]: Positive

CN1C(=O)CN=C(c2ccccc2)c2cc(Cl)ccc21 [diazepam]
enhanced acoustic startle response (eASR) phenotype, in words (zebrafish [1]; zebrafish, in vivo): produced eASRs that were relatively weak and inconsistent; also recorded: produced intermediate eASR phenotypes | Ave Norm FLIPR Score [2]: -10.9

Cc1cc(/C=C2/SC(=S)NC2=O)c(C)n1-c1cccnc1 [optovin]
pERK labeling (neuronal activity) (zebrafish [4]): neuronal activity increased in many brain regions including the telencephalon and optic tectum but not in the hindbrain

CC(=O)[C@H]1CC[C@H]2[C@@H]3CCC4=CC(=O)CC[C@]4(C)[C@H]3CC[C@]12C [progesterone]
enhanced acoustic startle response (eASR) phenotype, in words (zebrafish [1]; [5]): most potent compounds tested | Ave Norm FLIPR Score [2, 6]: 17.8 | FLIPR Results [2, 7]: Positive

CCCC(C)C1(CC)C(=O)NC(=S)NC1=O (stereo not drawn) [thiopental]
FLIPR Results [2, 7]: Positive

CCCCNc1c(C(=O)OCC)c(C)nc2c1cnn2CC [tracazolate]
Ave Norm FLIPR Score [2, 6]: 50.14 | FLIPR Results [2, 7]: Positive | GABAAR PAM activity in FLIPR, in words [2]: increased fluorescence in the presence of GABA

picrotoxin
Phenoscore (zebrafish [1]; zebrafish, in vivo): 0.03 | Ave Norm FLIPR Score [2, 6]: -9.76 | GABAAR PAM activity in FLIPR, in words [2]: PAM activity was not observed | pERK labeling (neuronal activity) (zebrafish [4]): neuronal activity increased in the telencephalon but not in the hindbrain
